In BindingDB's records for doi:10.1016/0960-894X(96)00287-9 (1996):
pIC50: −log10 of the molar value.

Experiments:
[1] = Compound was tested for inhibition of NK1 receptor from gerbil midbrain; NT means not tested
[2] = Compound was tested for inhibition of [125I]eledoisin radioligand binding to NK3 receptor from gerbil cortex
[3] = Inhibition of [3H]-SP radioligand binding to NK1 receptor from bovine retina

| Structure (SMILES) | pIC50 [1] | other results |
| --- | --- | --- |
| FC(F)(F)c1cc(CN2CC[C@H](NCc3ccnc4ccccc34)C[C@H]2Cc2ccccc2)cc(C(F)(F)F)c1 [[(2R,4S)-2-Benzyl-1-(3,5-bis-trifluoromethyl-benzyl)-piperidin-4-yl]-quinolin-4-ylmethyl-amine] | 6.06 | – |
| O=C(c1cc(O)cc(O)c1)N1CC[C@H](NCc2ccnc3ccccc23)C[C@H]1Cc1ccccc1 [{(2R,4S)-2-Benzyl-4-[(quinolin-4-ylmethyl)-amino]-piperidin-1-yl}-(3,5-dihydroxy-phenyl)-methanone] | 6.28 | – |
| O=C(c1ccc2ccccc2c1)N1CC[C@H](NCc2ccnc3ccccc23)C[C@H]1Cc1ccccc1 [{(2R,4S)-2-Benzyl-4-[(quinolin-4-ylmethyl)-amino]-piperidin-1-yl}-naphthalen-2-yl-methanone] | 6.15 | – |
| O=C(Cc1ccccc1)N[C@H]1CCN(C(=O)c2cc(Cl)cc(Cl)c2)[C@H](Cc2ccccc2)C1 [N-[(2R,4S)-2-Benzyl-1-(3,5-dichloro-benzoyl)-piperidin-4-yl]-2-phenyl-acetamide] | 7.22 | – |
| COc1cc(CC(=O)N[C@H]2CCN(C(=O)c3cc(C)cc(C)c3)[C@H](Cc3ccccc3)C2)cc(OC)c1 [N-[(2R,4S)-2-Benzyl-1-(3,5-dimethyl-benzoyl)-piperidin-4-yl]-2-(3,5-dimethoxy-phenyl)-acetamide] | 7.92 | – |
| O=C(c1cc(Br)cc(Br)c1)N1CC[C@H](NCc2ccnc3ccccc23)C[C@H]1Cc1ccccc1 [{(2R,4S)-2-Benzyl-4-[(quinolin-4-ylmethyl)-amino]-piperidin-1-yl}-(3,5-dibromo-phenyl)-methanone] | 7.62 | – |
| O=C(c1cc(C(F)(F)F)cc(C(F)(F)F)c1)N1CC[C@H](NCc2ccnc3ccccc23)C[C@H]1Cc1ccccc1 [{(2R,4S)-2-Benzyl-4-[(quinolin-4-ylmethyl)-amino]-piperidin-1-yl}-(3,5-bis-trifluoromethyl-phenyl)-methanone] | 7.77 | – |
| Cc1cc(C)cc(C(=O)N2CC[C@H](NCc3cnc4ccccc4c3)C[C@H]2Cc2ccccc2)c1 [{(2R,4S)-2-Benzyl-4-[(quinolin-3-ylmethyl)-amino]-piperidin-1-yl}-(3,5-dimethyl-phenyl)-methanone] | – | pIC50 [2]: 5.00; pIC50 [3]: 7.52 |
| Cc1cc(C)cc(C(=O)N2CC[C@H](NCc3ccncc3)C[C@H]2Cc2ccccc2)c1 [{(2R,4S)-2-Benzyl-4-[(pyridin-4-ylmethyl)-amino]-piperidin-1-yl}-(3,5-dimethyl-phenyl)-methanone] | 6.68 | – |
| COc1cc(OC)cc(C(=O)N2CC[C@H](NCc3ccnc4ccccc34)C[C@H]2Cc2ccccc2)c1 [{(2R,4S)-2-Benzyl-4-[(quinolin-4-ylmethyl)-amino]-piperidin-1-yl}-(3,5-dimethoxy-phenyl)-methanone] | 7.04 | – |
| CC(C)NC(=O)N[C@H]1CCN(C(=O)c2cc(C(F)(F)F)cc(C(F)(F)F)c2)[C@H](Cc2ccccc2)C1 [1-[(2R,4S)-2-Benzyl-1-(3,5-bis-trifluoromethyl-benzoyl)-piperidin-4-yl]-3-isopropyl-urea] | 7.70 | – |
| NC(=O)CN[C@H]1CCN(C(=O)c2cc(C(F)(F)F)cc(C(F)(F)F)c2)[C@H](Cc2ccccc2)C1 [2-[(2R,4S)-2-Benzyl-1-(3,5-bis-trifluoromethyl-benzoyl)-piperidin-4-ylamino]-acetamide] | 8.00 | – |
| CN(Cc1ccnc2ccccc12)[C@H]1CCN(C(=O)c2cc(Cl)cc(Cl)c2)[C@H](Cc2ccccc2)C1 [[(2R,4S)-2-Benzyl-4-(methyl-quinolin-4-ylmethyl-amino)-piperidin-1-yl]-(3,5-dichloro-phenyl)-methanone] | 6.41 | – |
| O=C(Cc1ccccc1)N1CC[C@H](NCc2ccnc3ccccc23)C[C@H]1Cc1ccccc1 [1-{(2R,4S)-2-Benzyl-4-[(quinolin-4-ylmethyl)-amino]-piperidin-1-yl}-2-phenyl-ethanone] | 5.48 | – |
| O=S(=O)(c1cc(C(F)(F)F)cc(C(F)(F)F)c1)N1CC[C@H](NCc2ccnc3ccccc23)C[C@H]1Cc1ccccc1 [[(2R,4S)-2-Benzyl-1-(3,5-bis-trifluoromethyl-benzenesulfonyl)-piperidin-4-yl]-quinolin-4-ylmethyl-amine] | < 5.00 | – |

The next lines start with results.

| pIC50 [1] | Structure (SMILES) | other results |
| --- | --- | --- |
| 7.59 | O=C(c1cc(Cl)cc(Cl)c1)N1CC[C@H](NCc2ccnc3ccccc23)C[C@H]1Cc1ccccc1 [{(2R,4S)-2-Benzyl-4-[(quinolin-4-ylmethyl)-amino]-piperidin-1-yl}-(3,5-dichloro-phenyl)-methanone] | – |
| 7.27 | O=C(c1cccc(Cl)c1)N1CC[C@H](NCc2ccnc3ccccc23)C[C@H]1Cc1ccccc1 [{(2R,4S)-2-Benzyl-4-[(quinolin-4-ylmethyl)-amino]-piperidin-1-yl}-(3-chloro-phenyl)-methanone] | – |
| 7.96 | CN(C)CCCOC(=O)N[C@H]1CCN(C(=O)c2cc(C(F)(F)F)cc(C(F)(F)F)c2)[C@H](Cc2ccccc2)C1 [[(2R,4S)-2-Benzyl-1-(3,5-bis-trifluoromethyl-benzoyl)-piperidin-4-yl]-carbamic acid 3-dimethylamino-propyl ester] | – |
| 7.14 | O=C(Nc1ccccc1)N[C@H]1CCN(C(=O)c2cc(Cl)cc(Cl)c2)[C@H](Cc2ccccc2)C1 [1-[(2R,4S)-2-Benzyl-1-(3,5-dichloro-benzoyl)-piperidin-4-yl]-3-phenyl-urea] | – |
| 7.21 | NCC(=O)N[C@H]1CCN(C(=O)c2cc(C(F)(F)F)cc(C(F)(F)F)c2)[C@H](Cc2ccccc2)C1 [2-Amino-N-[(2R,4S)-2-benzyl-1-(3,5-bis-trifluoromethyl-benzoyl)-piperidin-4-yl]-acetamide] | – |
| 6.96 | O=C(c1cccc2ccccc12)N1CC[C@H](NCc2ccnc3ccccc23)C[C@H]1Cc1ccccc1 [{(2R,4S)-2-Benzyl-4-[(quinolin-4-ylmethyl)-amino]-piperidin-1-yl}-naphthalen-1-yl-methanone] | – |
| 7.72 | Cc1cc(C)cc(C(=O)N2CC[C@H](NCc3cc4ccccc4cn3)C[C@H]2Cc2ccccc2)c1 [{(2R,4S)-2-Benzyl-4-[(isoquinolin-3-ylmethyl)-amino]-piperidin-1-yl}-(3,5-dimethyl-phenyl)-methanone] | – |
| 6.66 | Cc1cc(C)cc(C(=O)N2CC[C@H](NCc3ccccc3)C[C@H]2Cc2ccccc2)c1 [((2R,4S)-2-Benzyl-4-benzylamino-piperidin-1-yl)-(3,5-dimethyl-phenyl)-methanone] | – |
| 6.22 | O=C(c1cc(Cl)cc(Cl)c1)N1CC[C@H](N(Cc2ccnc3ccccc23)C(=O)C(F)(F)F)C[C@H]1Cc1ccccc1 [N-[(2R,4S)-2-Benzyl-1-(3,5-dichloro-benzoyl)-piperidin-4-yl]-2,2,2-trifluoro-N-quinolin-4-ylmethyl-acetamide] | – |
